Test results: ChEMBL document CHEMBL1201862, “PubChem BioAssay data set” (2004)
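Cells were grown in 96-well plates and exposed to each compound for 48 hours at five concentrations; endpoints were interpolated linearly between bracketing concentrations, or set to the highest concentration if not reached. GI50 is the concentration that inhibits growth by half.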 Active and inactive are the calls of the source. Cut-off read from the data, not from the text of the source: active = GI50 up to about 1.1 µM and inactive = higher.

Key:
Test in all cases: DTP human tumour cell line panel, 48 h
[1] = test system: 786-0
[2] = test system: A498
[3] = test system: A549
[4] = test system: ACHN
[5] = test system: BT-549
[6] = test system: CAKI-1
[7] = test system: CCRF-CEM
[8] = test system: COLO 205
[9] = test system: DU-145
[10] = test system: EKVX
[11] = test system: HCC 2998
[12] = test system: HCT-116
[13] = test system: HCT-15
[14] = test system: HL-60
[15] = test system: HOP-92
[16] = test system: HT-29
[17] = test system: Hs-578T
[18] = test system: IGROV-1
[19] = test system: K562
[20] = test system: KM12
[21] = test system: M14
[22] = test system: MCF7
[23] = test system: MDA-MB-231
[24] = test system: MDA-MB-435
[25] = test system: MDA-N
[26] = test system: MOLT-4
[27] = test system: Malme-3M
[28] = test system: NCI-H226
[29] = test system: NCI-H23
[30] = test system: NCI-H460
[31] = test system: NCI-H522
[32] = test system: NCI/ADR-RES
[33] = test system: OVCAR-3
[34] = test system: OVCAR-4
[35] = test system: OVCAR-5
[36] = test system: OVCAR-8
[37] = test system: PC-3
[38] = test system: RPMI-8226
[39] = test system: RXF 393
[40] = test system: SF-268
[41] = test system: SF-295
[42] = test system: SF-539
[43] = test system: SK-MEL-28
[44] = test system: SK-MEL-2
[45] = test system: SK-MEL-5
[46] = test system: SK-OV-3
[47] = test system: SN12C
[48] = test system: SNB-19
[49] = test system: SNB-75
[50] = test system: SR
[51] = test system: SW-620
[52] = test system: T47D
[53] = test system: TK-10
[54] = test system: U-251
[55] = test system: UACC-257
[56] = test system: UACC-62
[57] = test system: UO-31
[58] = test system: HOP-62
[59] = test system: LOX IMVI

Cc1ccc2c(c1C)C(=O)C1(Cc3cc4c(cc3C1=O)CCC4)C2 (centres undefined)
GI50 [1]: > 100 µM (inactive)
GI50 [2]: > 100 µM (inactive)
GI50 [3]: > 100 µM (inactive)
GI50 [4]: > 100 µM (inactive)
GI50 [5]: > 100 µM (inactive)
GI50 [6]: > 100 µM (inactive)
GI50 [7]: > 100 µM (inactive)
GI50 [8]: > 100 µM (inactive)
GI50 [9]: > 100 µM (inactive)
GI50 [10]: > 100 µM (inactive)
GI50 [11]: > 100 µM (inactive)
GI50 [12]: > 100 µM (inactive)
GI50 [13]: > 100 µM
GI50 [14]: > 100 µM (inactive)
GI50 [15]: > 100 µM (inactive)
GI50 [16]: > 100 µM (inactive)
GI50 [17]: > 100 µM (inactive)
GI50 [18]: > 100 µM (inactive)
GI50 [19]: > 100 µM (inactive)
GI50 [20]: > 100 µM (inactive)
GI50 [21]: > 100 µM (inactive)
GI50 [22]: > 100 µM (inactive)
GI50 [23]: > 100 µM (inactive)
GI50 [24]: > 100 µM (inactive)
GI50 [25]: > 100 µM (inactive)
GI50 [26]: > 100 µM (inactive)
GI50 [27]: > 100 µM (inactive)
GI50 [28]: > 100 µM (inactive)
GI50 [29]: > 100 µM (inactive)
GI50 [30]: > 100 µM (inactive)
GI50 [31]: > 100 µM (inactive)
GI50 [32]: > 100 µM (inactive)
GI50 [33]: 87.9 µM (inactive)
GI50 [34]: > 100 µM (inactive)
GI50 [35]: > 100 µM (inactive)
GI50 [36]: > 100 µM (inactive)
GI50 [37]: > 100 µM (inactive)
GI50 [38]: > 100 µM (inactive)
GI50 [39]: 99.8 µM (inactive)
GI50 [40]: > 100 µM (inactive)
GI50 [41]: > 100 µM (inactive)
GI50 [42]: 0.726 µM (active)
GI50 [43]: > 100 µM (inactive)
GI50 [44]: > 100 µM (inactive)
GI50 [45]: > 100 µM (inactive)
GI50 [46]: > 100 µM (inactive)
GI50 [47]: > 100 µM (inactive)
GI50 [48]: > 100 µM (inactive)
GI50 [49]: > 100 µM (inactive)
GI50 [50]: > 100 µM (inactive)
GI50 [51]: > 100 µM (inactive)
GI50 [52]: > 100 µM (inactive)
GI50 [53]: > 100 µM (inactive)
GI50 [54]: > 100 µM (inactive)
GI50 [55]: > 100 µM (inactive)
GI50 [56]: > 100 µM (inactive)
GI50 [57]: > 100 µM (inactive)

COC(=O)[C@]1(CCC(C)=O)C(=O)C=CN([C@H](C)c2ccccc2)[C@@H]1Cc1ccc(OC)c(OCc2ccccc2)c1I
GI50 [1]: 17.8 µM (inactive)
GI50 [2]: 22.5 µM (inactive)
GI50 [3]: 20.4 µM (inactive)
GI50 [4]: 25.7 µM (inactive)
GI50 [5]: 24.1 µM (inactive)
GI50 [6]: 29.2 µM (inactive)
GI50 [7]: 25.4 µM (inactive)
GI50 [8]: 17.9 µM (inactive)
GI50 [9]: 16.7 µM (inactive)
GI50 [10]: 29.6 µM (inactive)
GI50 [11]: 14.2 µM (inactive)
GI50 [12]: 14 µM (inactive)
GI50 [13]: 18.9 µM
GI50 [14]: 24 µM (inactive)
GI50 [58]: 22.8 µM (inactive)
GI50 [15]: 6.08 µM (inactive)
GI50 [16]: 14.6 µM (inactive)
GI50 [17]: 24 µM (inactive)
GI50 [18]: 12.6 µM (inactive)
GI50 [19]: 17.8 µM (inactive)
GI50 [20]: 19.2 µM (inactive)
GI50 [59]: 17.2 µM (inactive)
GI50 [21]: 15 µM (inactive)
GI50 [22]: 19.2 µM (inactive)
GI50 [23]: 15.8 µM (inactive)
GI50 [24]: 18.1 µM (inactive)
GI50 [25]: 18.7 µM (inactive)
GI50 [26]: 12.4 µM (inactive)
GI50 [28]: 15.7 µM (inactive)
GI50 [29]: 23.7 µM (inactive)
GI50 [30]: 15.9 µM (inactive)
GI50 [31]: 20 µM (inactive)
GI50 [32]: 29.2 µM (inactive)
GI50 [33]: 16.8 µM (inactive)
GI50 [34]: 19.3 µM (inactive)
GI50 [35]: 22.7 µM (inactive)
GI50 [36]: 22 µM (inactive)
GI50 [37]: 16.6 µM (inactive)
GI50 [38]: 14.7 µM (inactive)
GI50 [39]: 11.4 µM (inactive)
GI50 [40]: 15.4 µM (inactive)
GI50 [41]: 17.7 µM (inactive)
GI50 [42]: 16.6 µM (inactive)
GI50 [43]: 35.2 µM (inactive)
GI50 [44]: 16.6 µM (inactive)
GI50 [45]: 13.9 µM (inactive)
GI50 [46]: 35.4 µM (inactive)
GI50 [47]: 18 µM (inactive)
GI50 [48]: 22.5 µM (inactive)
GI50 [50]: 15.7 µM (inactive)
GI50 [51]: 32.9 µM (inactive)
GI50 [52]: 13.5 µM (inactive)
GI50 [53]: 21.5 µM (inactive)
GI50 [54]: 17.3 µM (inactive)
GI50 [55]: 16.7 µM (inactive)
GI50 [56]: 14.8 µM (inactive)
GI50 [57]: 15.2 µM (inactive)
